The text below walks through data of patent publication US7378391B2, “Cyclosporin alkyne analogues and their pharmaceutical uses” (AMR Technology, Inc., priority 2004, dated 2008).

Molecules are shown by their SMILES. Converted amounts (≈) assume the structure as drawn.

The test system of assay [1] is concanavalin A (ConA)-stimulated murine splenocytes. Description: Concanavalin A-stimulated splenocyte assay ([3H]thymidine incorporation). The format is cell-based, BALB/c mice. The following applies: for IC50: immunosuppressive activity of the novel cyclosporin alkyne analogue compound. As to the method: Male BALB/c mice, at 5 to 7 weeks of age, were sacrificed by CO2 inhalation. Spleens were removed and dissociated by pushing through a nylon cell strainer. The splenocytes were washed in RPMI 1640/5% fetal calf serum (FCS) and pelleted at 400×g. Red blood cells were then lysed by resuspending the cell pellet in ACK lysis buffer (150 mM NH4Cl, 1 mM KHCO3, 0.1 mM EDTA, 3 mL per spleen) for 10 min at room temperature. After pelleting at 400×g, the cells were washed by resuspending in RPMI 1640/5% FCS and repelleting. The cell pellet was resuspended in RPMI 1640/5% FCS and again passed through a cell strainer to remove cell aggregates. The cells were then counted and adjusted to 2×10^6 cells/ml in RPMI 1640/10% FCS/50 μM 2-mercaptoethanol. Cell viability was assessed by Trypan blue staining. […] The cells were cultured in a 37° C. CO2 incubator for 2 days and then pulsed with 1 μCi of [^3H]thymidine for 6 hours. Cells were harvested onto filtermats with a TomTec 96 well plate harvester and lysed with H2O. The filtermat and scintillation fluid were sealed in a plastic sleeve. [^3H]thymidine incorporation was measured with a Wallac Trilux plate counter. Initial screens were done at a fixed value of 100 ng/ml test compound. IC50s were calculated from 7 point concentration-response curves using GraphPad software.

For assay [2] the following is noted: literature value, Rich et al.; cited from earlier work.

The IC50 is the concentration at which inhibition is half-maximal. A higher IC50 goes with lower potency. In the case of `CCC1NC(=O)C(C(O)C(C)CC=CC#CBr)N(C)C(=O)C(C(C)C)N(C)C(=O)C(CC(C)C)N(C)C(=O)C(CC(C)C)N(C)C(=O)C(C)NC(=O)C(C)NC(=O)C(CC(C)C)N(C)C(=O)C(C(C)C)NC(=O)C(CC(C)C)N(C)C(=O)CN(C)C1=O` (stereo not shown) [Example 15, cyclosporin alkynyl bromide], the “IC50” value in assay [1] amounted to 8 ng/mL.
Regarding `CC#CC[C@@H](C)[C@@H](O)[C@H]1C(=O)N[C@@H](CC)C(=O)N(C)CC(=O)N(C)[C@@H](CC(C)C)C(=O)N[C@@H](C(C)C)C(=O)N(C)[C@@H](CC(C)C)C(=O)N[C@@H](C)C(=O)N[C@H](C)C(=O)N(C)[C@@H](CC(C)C)C(=O)N(C)[C@@H](CC(C)C)C(=O)N(C)[C@@H](C(C)C)C(=O)N1C` [known cyclosporin alkyne], the “relative immunosuppressive activity compared to cyclosporin A” value in assay [2] is on record as 10%.
Consider `CC[C@@H]1NC(=O)[C@H]([C@H](O)[C@H](C)C/C=C/C#CC2CC2)N(C)C(=O)[C@H](C(C)C)N(C)C(=O)[C@H](CC(C)C)N(C)C(=O)[C@H](CC(C)C)N(C)C(=O)[C@@H](C)NC(=O)[C@H](C)NC(=O)[C@H](CC(C)C)N(C)C(=O)[C@H](C(C)C)NC(=O)[C@H](CC(C)C)N(C)C(=O)CN(C)C1=O` [Example 33, cyclosporin cyclopropyl alkyne], for which the “immunosuppressive activity (as determined by IC50) relative to ISATX247” value in assay [1] (FIG. 1, compared to ISATX247) is recorded as “equipotent”. Further, the “immunosuppressive activity (as determined by IC50) relative to cyclosporin A” value in assay [1] (FIG. 1, compared to cyclosporin A) is given as “up to two times more active”. For the same compound, the “potency in immunosuppression compared to cyclosporin A and ISATX247” value in assay [1] (FIG. 1 legend) is “enhanced or similar potency”. Also, the “IC50” value in assay [1] turned out to be 9 ng/mL (≈ 7.18 nM).
Regarding `CCC1NC(=O)C(C(O)C(C)CC=CC#CI)N(C)C(=O)C(C(C)C)N(C)C(=O)C(CC(C)C)N(C)C(=O)C(CC(C)C)N(C)C(=O)C(C)NC(=O)C(C)NC(=O)C(CC(C)C)N(C)C(=O)C(C(C)C)NC(=O)C(CC(C)C)N(C)C(=O)CN(C)C1=O` (stereo not shown) [Example 13, cyclosporin alkynyl iodide], in assay [1], the “IC50” value is 1 ng/mL.
